Where a name gives a salt, the structure may show the parent alone.
Legend:
Format in all cases: cell-based
SAS = experiment: Cell viability analysis (WST-1), SAS; conditions: 72 h, Table 4, repeated experiments, drug 10 μM, read-out: survival rate (viability) of cancer cells, SAS
Experimental: (§1) Subculture the different types of cancer cells. The cancer cells includes lung cancer, gastric cancer, hepatic cancer, colon cancer, skin cancer, cervical cancer, prostate cancer, bladder cancer, breast cancer, leukemia, pancreatic cancer, ovarian cancer, tongue cancer, osteosarcoma, and renal cancer. The cell numbers were counted and reseed as 2×10^6 in cell culture plate/flask. Then, the culture medium for culturing the cell lines was added to a volume of 10 ml, and the cells were cultured for 2-3 days. Then, the cells were suspended for loading into 96-well plates. The cell number was 3000 cells and the volume of the culture medium was 100 ul each well.
(§2) Removing the original culture medium from 96-well plate. Then add 100 μl of commercially drug at a concentration of 10 μM per well. After 72 hours, add the diluted WST-1 reagent to the well with 100 μl/well, and the diluted WST-1 reagent was acquired from the dilution of 9:1 medium and WST-1 stock reagent. Finally, the total volume of each well are 200 μl/well. Culture the 96-well plate at 37° C. for 30 to 90 minutes. Detecting and calculating the survival rate of each cancer cells with an ELISA reader at OD450 nm. The lower viability of cancer cells represents better inhibition effect via the drugs. Otherwise, the higher viability of cancer cells represents worse inhibition effect via the drugs.
(§3) According to the above mentioned cardiovascular drugs for cancer growth inhibition in Table 3, the inventors took the repeat experiments for the cardiovascular drugs to check the growth inhibitory effects of cancer cells by the cardiovascular drugs. […] 4.

BCC = experiment: Cell viability analysis (WST-1), BCC; conditions: BCC, 72 h, Table 4, repeated experiments, drug 10 μM, read-out: survival rate (viability) of cancer cells, BCC
[1] = test system: HCT116 (Colorectal Carcinoma); experiment: Cell viability analysis (WST-1), HCT116; conditions: Homo sapiens, HCT-116, 72 h, Table 4, repeated experiments, drug 10 μM, WST-1, read-out: survival rate (viability) of cancer cells, HCT116
[2] = test system: PC3 (Prostate Adenocarcinoma); experiment: Cell viability analysis (WST-1), PC3; conditions: 72 h, Table 4, repeated experiments, drug 10 μM, WST-1, read-out: survival rate (viability) of cancer cells, PC-3
AsPC-1 = experiment: Cell viability analysis (WST-1), AsPC-1; conditions: Homo sapiens, ASPC1, 72 h, Table 4, repeated experiments, drug 10 μM, read-out: survival rate (viability) of cancer cells, AsPC-1
Experimental: as §1, §2, §3

BxPC-3 = experiment: Cell viability analysis (WST-1), BxPC-3; conditions: Homo sapiens, BXPC-3, 72 h, Table 4, repeated experiments, drug 10 μM, read-out: survival rate (viability) of cancer cells, BxPC-3
Experimental: as §1, §2, §3

[3] = test system: TSGH-8301 (Urinary Bladder Carcinoma); experiment: Cell viability analysis (WST-1), TSGH-8301; conditions: 72 h, Table 4, repeated experiments, drug 10 μM, WST-1, read-out: survival rate (viability) of cancer cells, TSGH-8301
[4] = test system: AGS (Gastric Adenocarcinoma); experiment: Cell viability analysis (WST-1), AGS; conditions: 72 h, Table 4, repeated experiments, drug 10 μM, WST-1, read-out: survival rate (viability) of cancer cells, AGS
[5] = test system: MCF7 (Mammary Gland, Adenocarcinoma); experiment: Cell viability analysis (WST-1), MCF7; conditions: Homo sapiens, MCF7, 72 h, Table 4, repeated experiments, drug 10 μM, WST-1, read-out: survival rate (viability) of cancer cells, MCF-7
[6] = test system: MKN-45 (Gastric Adenocarcinoma); experiment: Cell viability analysis (WST-1), MKN-45; conditions: Homo sapiens, MKN-45, 72 h, Table 4, repeated experiments, drug 10 μM, WST-1, read-out: survival rate (viability) of cancer cells, MKN-45
Hep3B = experiment: Cell viability analysis (WST-1), Hep3B; conditions: Homo sapiens, Hep3B, 72 h, Table 4, repeated experiments, drug 10 μM, read-out: survival rate (viability) of cancer cells, Hep3B
Experimental: as §1, §2, §3

[7] = test system: LoVo (Colorectal Adenocarcinoma); experiment: Cell viability analysis (WST-1), LoVo; conditions: Homo sapiens, LoVo, 72 h, Table 4, repeated experiments, drug 10 μM, WST-1, read-out: survival rate (viability) of cancer cells, LoVo
[8] = test system: A375 (Amelanotic Melanoma); experiment: Cell viability analysis (WST-1), A375; conditions: Homo sapiens, A-375, 72 h, Table 4, repeated experiments, drug 10 μM, WST-1, read-out: survival rate (viability) of cancer cells, A375
[9] = test system: H1650 (Lung Adenocarcinoma); experiment: Cell viability analysis (WST-1), H1650; conditions: Homo sapiens, NCI-H1650, 72 h, Table 4, repeated experiments, drug 10 μM, WST-1, read-out: survival rate (viability) of cancer cells, H1650
NIH-OVCAR-3 = experiment: Cell viability analysis (WST-1), NIH-OVCAR-3; conditions: Homo sapiens, OVCAR-3, 72 h, Table 4, repeated experiments, drug 10 μM, read-out: survival rate (viability) of cancer cells, NIH-OVCAR-3
Experimental: as §1, §2, §3

U2OS = experiment: Cell viability analysis (WST-1), U2OS; conditions: Homo sapiens, U2OS, 72 h, Table 4, repeated experiments, drug 10 μM, read-out: survival rate (viability) of cancer cells, U2OS
Experimental: as §1, §2, §3

MDA-MB231 = experiment: Cell viability analysis (WST-1), MDA-MB231; conditions: Homo sapiens, MDA-MB-231, 72 h, Table 4, repeated experiments, drug 10 μM, read-out: survival rate (viability) of cancer cells, MDA-MB231
cancer cell lines = experiment: Growth inhibitory effects on the panel of cancer cell lines; conditions: drug 10 μM, 72 hours, WST-1
TOV-21G = experiment: Cell viability analysis (WST-1), TOV-21G; conditions: Homo sapiens, TOV21G, 72 h, Table 4, repeated experiments, drug 10 μM, read-out: survival rate (viability) of cancer cells, TOV-21G
Experimental: as §1, §2, §3

C-33A = experiment: Cell viability analysis (WST-1), C-33A; conditions: Homo sapiens, C-33-A, 72 h, Table 4, repeated experiments, drug 10 μM, read-out: survival rate (viability) of cancer cells, C-33A
Experimental: as §1, §2, §3

786-O = experiment: Cell viability analysis (WST-1), 786-O; conditions: Homo sapiens, 786-0, 72 h, Table 4, repeated experiments, drug 10 μM, read-out: survival rate (viability) of cancer cells, 786-O
Experimental: as §1, §2, §3

[10] = test system: HepG2 (Hepatocellular Carcinoma); experiment: Cell viability analysis (WST-1), HepG2; conditions: Homo sapiens, HepG2, 72 h, Table 4, repeated experiments, drug 10 μM, WST-1, read-out: survival rate (viability) of cancer cells, HepG2
[11] = test system: A549 (Lung Adenocarcinoma); experiment: Cell viability analysis (WST-1), A549; conditions: Homo sapiens, A549, 72 h, Table 4, repeated experiments, drug 10 μM, WST-1, read-out: survival rate (viability) of cancer cells, A549
[12] = test system: HeLa (Cervix Adenocarcinoma); experiment: Cell viability analysis (WST-1), HeLa; conditions: Homo sapiens, HeLa, 72 h, Table 4, repeated experiments, drug 10 μM, WST-1, read-out: survival rate (viability) of cancer cells, HeLa
T24 = experiment: Cell viability analysis (WST-1), T24; conditions: Homo sapiens, T-24, 72 h, Table 4, repeated experiments, drug 10 μM, read-out: survival rate (viability) of cancer cells, T24
Experimental: as §1, §2, §3

Compound | viability at 10 µM (SAS) [%] | viability at 10 µM (BCC) [%] | viability at 10 µM [1] [%] | viability at 10 µM [2] [%] | viability at 10 µM (AsPC-1) [%] | viability at 10 µM (BxPC-3) [%] | viability at 10 µM [3] [%] | viability at 10 µM [4] [%] | viability at 10 µM [5] [%] | viability at 10 µM [6] [%] | viability at 10 µM (Hep3B) [%] | viability at 10 µM [7] [%] | viability at 10 µM [8] [%] | viability at 10 µM (NIH-OVCAR-3) [%] | viability at 10 µM (U2OS) [%] | inhibition effect on different cancer cell lines (in words) (cancer cell lines) | viability at 10 µM (TOV-21G) [%] | viability at 10 µM (C-33A) [%] | viability at 10 µM (786-O) [%] | viability at 10 µM [10] [%] | also measured
CC1=C(C(=O)OC(C)C)C(c2cccc([N+](=O)[O-])c2)C(C(=O)OC2CN(C(c3ccccc3)c3ccccc3)C2)=C(N)N1 (stereo not drawn) [Azelnidipine] | 76.8 | 100 | 111 | 121 | 53.6 | 64.6 | 115 | 90.2 | 60.8 | 139 |  |  |  |  |  |  |  |  |  |  | 
COC(=O)C1=C(C)NC(C)=C(C(=O)OC2CCCN(Cc3ccccc3)C2)C1c1cccc([N+](=O)[O-])c1 (stereo not drawn) [Benidipine hydrochloride] | 64.5 |  | 90.6 | 88.5 | 63.4 | 73.8 | 81.5 | 87.8 | 77.3 | 92.9 | 98.8 | 69 | 76 | 85.2 | 54.2 | significant inhibition effect | 47.5 | 105 | 78.9 | 83.6 | viability at 10 µM [9]: 64.5%; viability at 10 µM (MDA-MB231): 77.3%; viability at 10 µM [11]: 70.3%; viability at 10 µM [12]: 92.9%; viability at 10 µM (T24): 61%
CCCCc1nc(Cl)c(CO)n1Cc1ccc(-c2ccccc2-c2nn[nH]n2)cc1 [Losartan potassium] | 95.7 | 90.2 | 106 | 120 | 86.4 | 77.7 | 92 | 74.1 | 87.6 | 82.8 | 103 | 106 | 96.6 | 98.7 | 105 | significant inhibition effect | 78.6 | 108 | 96.3 | 93.9 | viability at 10 µM [9]: 77.2%; viability at 10 µM [11]: 96%; viability at 10 µM [12]: 83.4%; viability at 10 µM (T24): 66.3%
COc1cc2nc(N3CCN(C(=O)c4ccco4)CC3)nc(N)c2cc1OC [Prazosin HCl] | 114 | 73.5 | 96.4 |  | 80.4 | 54 | 99.8 | 86.8 | 87.6 | 70.1 | 116 | 95.7 | 77.9 | 88.9 | 98 | significant inhibition effect | 91.9 | 97.2 | 79.5 | 87.2 | viability at 10 µM (MDA-MB231): 85.1%; viability at 10 µM [11]: 72.2%; viability at 10 µM [12]: 90.9%; viability at 10 µM (T24): 88.5%

From patent US20170304388A1, “NEW INDICATION OF CARDIOVASCULAR DRUGS FOR PREPARATION OF CANCER INHIBITION PHARMACEUTICAL COMPOSITION” (LAUNX BIOMEDICAL CO., LTD., priority 2014, published 2017)
